The nature of this data set: Metabolic activity assessment (cytotoxicity), CellTiter 96 Aqueous One. The settings on record: human, 72 h treatment, means of three independent measurements ± SD. It counts as cell-based. The procedure: HUVEC (ATCC® CRL-1730™) and HepG2 (ATCC® HB-8065™) cell lines were cultured in Dulbecco’s Modified Eagle Medium (DMEM; Sigma-Aldrich, St. Louis, MO, USA) supplemented with 10% heat-deactivated FBS (Gibco, Grand Island, NE, USA), 2 mM L-glutamine, 100 U/mL penicillin, 100 μg/mL streptomycin (all from Sigma-Aldrich, St. Louis, MO, USA) in a humidified chamber at 37 °C and 5% CO2. The experiments were carried out on passages 4–7 for both cell lines. The tested compounds were dissolved in DMSO and further diluted in culture medium to a desired final concentration. The cells were then seeded into 96-well plates at 5 × 10^4 cells/mL (100 μL/well) or 8 × 10^4 cells/mL (100 μL/well) for HUVEC and HepG2, respectively. The cells were then incubated for 24 h to allow attachment onto the wells. The cells were treated with 1 μM and 50 μM of each compound of interest, or the corresponding vehicle as control. […] Their metabolic activity was assessed after 72 h treatment using a CellTiter 96 Aqueous One Solution Cell Proliferation Assay (Promega, Madison, WI, USA), in accordance with the manufacturer’s instructions. The absorbance was measured at 492 nm on an automated microplate reader, Tecan Spark (Tecan Group Ltd., Männedorf, CH, Switzerland). Data are presented as the percentage of metabolic activity of control cells stimulated with vehicle, or as an IC50 value (mean ± SD) from three independent experiments, each conducted in triplicate (for screening) or duplicate (for IC50 determination). IC50 values were calculated using a non-linear regression model and with Graph Pad Prism 9 software.

In general, IC50 refers to the concentration that inhibits the measured activity by half. A low value points to inhibition by little substance. Turning to `COc1ccc2nccc(OCC3CCC(NCc4ccc(C)cc4)CC3)c2n1` (centres unmarked) [Compound 6], the IC50 at 72 h stood at 36.6 ± 7.91 µM (HUVEC cells (ATCC CRL-1730)) and 22.5 ± 2.7 µM (HepG2 cells (ATCC HB-8065)).
For `COc1ccc2nccc(C(O)CC3CCC(NCc4ccc(C)cc4)CC3)c2n1` (centres unmarked) [Compound 8, 1-(6-Methoxy-1,5-naphthyridin-4-yl)-2-(4-((4-methylbenzyl)amino)cyclohexyl)ethan-1-ol] the same measures were 33.1 ± 6.13 µM and 22.3 ± 0.36 µM.
For `COc1ccc2nccc(OCC3CCC(NCc4ccc(C)cc4)CO3)c2n1` (centres unmarked) [Compound 7, 6-(((6-Methoxy-1,5-naphthyridin-4-yl)oxy)methyl)-N-(4-methylbenzyl)tetrahydro-2H-pyran-3-amine] the same measures were > 50 µM and > 50 µM.
As for `COc1ccc2nccc(CCN3CCC(NCc4ccc(C)cc4)CC3)c2n1` [Compound 5, 1-(2-(6-Methoxy-1,5-naphthyridin-4-yl)ethyl)-N-(4-methylbenzyl)piperidin-4-amine], the half-inhibitory concentration (IC50) at 72 h is 36.5 ± 9.82 µM (HUVEC cells (ATCC CRL-1730)) and 20 ± 3.01 µM (HepG2 cells (ATCC HB-8065)).

These data come from publication PMC10215804, “Exploring Alternative Pathways to Target Bacterial Type II Topoisomerases Using NBTI Antibacterials: Beyond Halogen-Bonding Interactions” (Antibiotics, 2023).
